From patent US10123995B2, “Factor XIa inhibitors” (MERCK SHARP & DOHME CORP., priority 2015, dated 2018)

Key:
[1] = target: purified human Factor XIa (Homo sapiens (Human), UniProt P03951); assay: Factor XIa Assay; format: biochemical; conditions: Factor XIa inhibition; substrate Z-Gly-Pro-Arg-AFC, pH 7.4; read-out: hFXIa IC50
Method: The effectiveness of a compound of the present invention as an inhibitor of Coagulation Factor XIa can be determined using a relevant purified serine protease, and an appropriate synthetic substrate. The rate of hydrolysis of the chromogenic or fluorogenic substrate by the relevant serine protease was measured both in the absence and presence of compounds of the present invention. Assays were conducted at room temperature or at 37° C. […] A decrease in the rate of fluorescence change in the presence of inhibitor is indicative of enzyme inhibition. Such methods are known to one skilled in the art. […]
Factor XIa determinations were made in 50 mM HEPES buffer at pH 7.4 containing 150 mM NaCl, 5 mM CaCl2, and 0.1% PEG 8000 (polyethylene glycol; JT Baker or Fisher Scientific). Determinations were made using purified human Factor XIa at a final concentration of 40 pM (Sekisui Diagnostics) and the synthetic substrate, Z-Gly-Pro-Arg-AFC, TFA salt (Sigma #C0980) at a concentration of 100 μM.
Activity assays were performed by diluting a stock solution of substrate at least tenfold to a final concentration ≤0.1 Km into a solution containing enzyme or enzyme equilibrated with inhibitor. Times required to achieve equilibration between enzyme and inhibitor were determined in control experiments. Initial velocities of product formation in the absence (Vo) or presence of inhibitor (Vi) were measured. Assuming competitive inhibition, and that unity is negligible compared Km/[S], [I]/e, and [I]/e (where [S], [I], and e respectively represent the total concentrations, of substrate, inhibitor and enzyme), the equilibrium constant (Ki) for dissociation of the inhibitor from the enzyme can be obtained from the dependence of Vo/Vi on [I] shown in the following equation. Vo/Vi=1+[I]/Ki

[2] = target: purified Human plasma kallikrein (Homo sapiens (Human), UniProt P03952); assay: Kallikrein Assay; format: biochemical; conditions: table titled Kalikrein inhibition (column head prints hFXIa), substrate Acetyl-K-P-R-AFC, pH 7.4
Method: The effectiveness of a compound of the present invention as an inhibitor of Kallikrein can be determined using a relevant purified serine protease, and an appropriate synthetic substrate. The rate of hydrolysis of the chromogenic or fluorogenic substrate by the relevant serine protease was measured both in the absence and presence of compounds of the present invention. Assays were conducted at room temperature or at 37° C. […] A decrease in the rate of fluorescence change in the presence of inhibitor is indicative of enzyme inhibition. Such methods are known to one skilled in the art. The results of this assay are expressed as the inhibitory constant, Ki.
Kallikrein determinations were made in 50 mM HEPES buffer at pH 7.4 containing 150 mM NaCl, 5 mM CaCl2, and 0.1% PEG 8000 (polyethylene glycol; Fisher Scientific). Determinations were made using purified Human plasma kallikrein at a final concentration of 0.5 nM (Enzyme Research Laboratories) and the synthetic substrate, Acetyl-K-P-R-AFC (Sigma # C6608) at a concentration of […].
Activity assays were performed by diluting a stock solution of substrate at least tenfold to a final concentration ≤0.2 Km into a solution containing enzyme or enzyme equilibrated with inhibitor. Times required to achieve equilibration between enzyme and inhibitor were determined in control experiments. The reactions were performed under linear progress curve conditions and fluorescence increase measured at 405 Ex/510 Em nm. Values were converted to percent inhibition of the control reaction (after subtracting 100% Inhibition value). IC50 was determined by inflection point from a four parameter logistic curve fit. Ki was calculated using the Cheng Prusoff equation, Ki=IC50/(1+([S]/Km)).

Sequence of purified Human plasma kallikrein (P03952 391-638): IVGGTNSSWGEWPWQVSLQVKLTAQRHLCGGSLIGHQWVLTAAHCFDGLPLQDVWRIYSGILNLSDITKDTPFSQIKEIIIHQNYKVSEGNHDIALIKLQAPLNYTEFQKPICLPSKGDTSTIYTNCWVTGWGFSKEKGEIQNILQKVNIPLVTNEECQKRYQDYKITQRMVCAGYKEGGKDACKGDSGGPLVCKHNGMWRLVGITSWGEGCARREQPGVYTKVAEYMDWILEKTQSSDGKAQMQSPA
Sequence of purified Human plasma kallikrein (P03952 20-390 partner): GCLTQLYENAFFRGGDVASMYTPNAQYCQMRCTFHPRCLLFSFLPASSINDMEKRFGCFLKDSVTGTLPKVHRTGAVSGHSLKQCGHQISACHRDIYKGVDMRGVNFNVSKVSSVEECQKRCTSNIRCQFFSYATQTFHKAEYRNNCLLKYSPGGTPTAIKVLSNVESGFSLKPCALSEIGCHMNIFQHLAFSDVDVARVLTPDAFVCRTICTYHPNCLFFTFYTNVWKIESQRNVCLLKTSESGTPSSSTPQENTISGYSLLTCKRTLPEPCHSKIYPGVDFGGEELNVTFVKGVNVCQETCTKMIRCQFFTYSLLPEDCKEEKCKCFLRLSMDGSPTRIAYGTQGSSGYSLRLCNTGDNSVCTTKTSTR
Sequence of purified human Factor XIa (P03951 388-625): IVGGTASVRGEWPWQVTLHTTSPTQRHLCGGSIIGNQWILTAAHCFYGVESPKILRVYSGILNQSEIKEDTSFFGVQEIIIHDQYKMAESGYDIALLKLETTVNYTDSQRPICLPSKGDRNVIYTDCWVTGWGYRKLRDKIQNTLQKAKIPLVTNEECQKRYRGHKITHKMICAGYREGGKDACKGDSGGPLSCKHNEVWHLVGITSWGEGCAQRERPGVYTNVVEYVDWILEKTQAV
Sequence of purified human Factor XIa (P03951 19-387 partner): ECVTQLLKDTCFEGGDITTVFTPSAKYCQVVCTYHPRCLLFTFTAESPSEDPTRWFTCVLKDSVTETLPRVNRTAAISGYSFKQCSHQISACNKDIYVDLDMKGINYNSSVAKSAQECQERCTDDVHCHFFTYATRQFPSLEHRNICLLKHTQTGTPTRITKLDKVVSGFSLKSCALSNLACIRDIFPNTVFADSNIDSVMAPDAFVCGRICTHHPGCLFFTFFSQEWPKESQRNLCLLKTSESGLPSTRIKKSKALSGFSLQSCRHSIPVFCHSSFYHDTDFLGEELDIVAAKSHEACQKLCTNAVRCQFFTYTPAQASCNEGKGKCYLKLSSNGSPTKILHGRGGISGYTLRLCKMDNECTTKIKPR

Row | SMILES | IC50 [1] [nM] | IC50 [2] [nM]
1 | O=C(O)c1ccc(NC(=O)C2CC(O)c3cc(-c4cc(Cl)ccc4-n4cnnn4)c[n+]([O-])c32)cc1 (racemic) [Example 6, 4-[({3-[5-chloro-2-(1H-tetrazol-1-yl)phenyl]-5-hydroxy-1-oxido-6,7-dihydro-5H-cyclopenta[b]pyridin-7-yl}carbonyl)amino]benzoic acid] | 10.5 | 700
2 | O=C(O)c1ccc(NC(=O)C2CC(O)c3cc(-c4cc(Cl)ccc4-n4cnnn4)c[n+]([O-])c32)cc1 (single isomer, unassigned) [Example 5] | 3.6 | 504
3 | O=C(O)c1ccc(NC(=O)C2CC(O)c3cc(-c4cc(Cl)ccc4-n4cnnn4)c[n+]([O-])c32)cc1 (single isomer, unassigned) [Example 7] | 8.6 | 1720
4 | O=C(O)c1ccc(NC(=O)C2(O)CC(O)c3cc(-c4cc(Cl)ccc4-n4cnnn4)c[n+]([O-])c32)cc1 (single isomer, unassigned) [Example 9, 4-[({3-[5-Chloro-2-(1H-tetrazol-1-yl)phenyl]-5,7-dihydroxy-1-oxido-6,7-dihydro-5H-cyclopenta[b]pyridin-7-yl}carbonyl)amino]benzoic acid] | 2.9 | 460
5 | O=C(O)c1ccc(NC(=O)C2(O)CC(O)c3cc(-c4cc(Cl)ccc4-n4cnnn4)c[n+]([O-])c32)cc1 (single isomer, unassigned) [Example 10, 4-[({3-[5-Chloro-2-(1H-tetrazol-1-yl)phenyl]-5,7-dihydroxy-1-oxido-6,7-dihydro-5H-cyclopenta[b]pyridin-7-yl}carbonyl)amino]benzoic acid] | 2.7 | 530
6 | O=C(O)c1ccc(NC(=O)C2(O)CC(O)c3cc(-c4cc(Cl)ccc4-n4cnnn4)c[n+]([O-])c32)cc1 (single isomer, unassigned) [Example 11, 4-[({3-[5-Chloro-2-(1H-tetrazol-1-yl)phenyl]-5,7-dihydroxy-1-oxido-6,7-dihydro-5H-cyclopenta[b]pyridin-7-yl}carbonyl)amino]benzoic acid] | 104 | –
7 | O=C(O)c1ccc(NC(=O)C2(O)CC(O)c3cc(-c4cc(Cl)ccc4-n4cnnn4)c[n+]([O-])c32)cc1 (single isomer, unassigned) [Example 12, 4-[({3-[5-Chloro-2-(1H-tetrazol-1-yl)phenyl]-5,7-dihydroxy-1-oxido-6,7-dihydro-5H-cyclopenta[b]pyridin-7-yl}carbonyl)amino]benzoic acid] | 202 | –
8 | O=C(O)c1ccc(NC(=O)C2(O)CC(F)c3cc(-c4cc(Cl)ccc4-n4cnnn4)c[n+]([O-])c32)cc1 (single isomer, unassigned) [Example 13, 4-[({3-[5-Chloro-2-(1H-tetrazol-1-yl)phenyl]-5-fluoro-7-hydroxy-1-oxido-6,7-dihydro-5H-cyclopenta[b]pyridin-7-yl}carbonyl)amino]benzoic acid] | 3.7 | 202
9 | O=C(O)c1ccc(NC(=O)C2(O)CC(F)c3cc(-c4cc(Cl)ccc4-n4cnnn4)c[n+]([O-])c32)cc1 (single isomer, unassigned) [Example 14, 4-[({3-[5-Chloro-2-(1H-tetrazol-1-yl)phenyl]-5-fluoro-7-hydroxy-1-oxido-6,7-dihydro-5H-cyclopenta[b]pyridin-7-yl}carbonyl)amino]benzoic acid] | 219 | –
10 | O=C(O)c1ccc(NC(=O)C2(F)CC(F)c3cc(-c4cc(Cl)ccc4-n4cnnn4)c[n+]([O-])c32)cc1 (single isomer, unassigned) [Example 15, 4-[({3-[5-Chloro-2-(1H-tetrazol-1-yl)phenyl]-5,7-difluoro-1-oxido-6,7-dihydro-5H-cyclopenta[b]pyridin-7-yl}carbonyl)amino]benzoic acid] | 14.1 | 4920
11 | O=C(O)c1ccc(NC(=O)C2(F)CC(F)c3cc(-c4cc(Cl)ccc4-n4cnnn4)c[n+]([O-])c32)cc1 (single isomer, unassigned) [Example 16, 4-[({3-[5-Chloro-2-(1H-tetrazol-1-yl)phenyl]-5,7-difluoro-1-oxido-6,7-dihydro-5H-cyclopenta[b]pyridin-7-yl}carbonyl)amino]benzoic acid] | 85.6 | –
12 | O=C(O)c1ccc(NC(=O)C2(F)CC(F)c3cc(-c4cc(Cl)ccc4-n4cnnn4)c[n+]([O-])c32)cc1 (single isomer, unassigned) [Example 17, 4-[({3-[5-Chloro-2-(1H-tetrazol-1-yl)phenyl]-5,7-difluoro-1-oxido-6,7-dihydro-5H-cyclopenta[b]pyridin-7-yl}carbonyl)amino]benzoic acid] | 4440 | –
13 | O=C(O)c1ccc(NC(=O)C2(F)CC(F)c3cc(-c4cc(Cl)ccc4-n4cnnn4)c[n+]([O-])c32)cc1 (single isomer, unassigned) [Example 18, 4-[({3-[5-Chloro-2-(1H-tetrazol-1-yl)phenyl]-5,7-difluoro-1-oxido-6,7-dihydro-5H-cyclopenta[b]pyridin-7-yl}carbonyl)amino]benzoic acid] | 9450 | –
14 | O=C(O)c1ccc(NC(=O)C2(CC3CC3)CCc3cc(-c4cc(Cl)ccc4-n4cnnn4)c[n+]([O-])c32)cc1 (single isomer, unassigned) [Example 21, 7-((4-carboxyphenyl)carbamoyl)-3-(5-chloro-2-(1H-tetrazol-1-yl)phenyl)-7-(cyclopropylmethyl)-6,7-dihydro-5H-cyclopenta[b]pyridine 1-oxide] | > 870 | –
15 | O=C(O)c1ccc(NC(=O)C2(CC3CC3)CCc3cc(-c4cc(Cl)ccc4-n4cnnn4)c[n+]([O-])c32)cc1 (single isomer, unassigned) [Example 22, 7-((4-carboxyphenyl)carbamoyl)-3-(5-chloro-2-(1H-tetrazol-1-yl)phenyl)-7-(cyclopropylmethyl)-6,7-dihydro-5H-cyclopenta[b]pyridine 1-oxide] | 178 | –
16 | O=C(O)c1ccc(NC(=O)C2CCc3cc(-c4cc(Cl)ccc4-n4cnnn4)c[n+]([O-])c32)cc1 (stereo not drawn) [Example 1, 4-[({3-[5-chloro-2-(1H-tetrazol-1-yl)phenyl]-1-oxido-6,7-dihydro-5H-cyclopenta[b]pyridin-7-yl}carbonyl)amino]benzoic acid] | 3.8 | 473
17 | O=C(NC12CCC(C(=O)O)(CC1)CC2)C1CCc2cc(-c3cc(Cl)ccc3-n3cnnn3)c[n+]([O-])c21 (stereo not drawn) [Example 2, 7-((4-carboxybicyclo[2.2.2]octan-1-yl)carbamoyl)-3-(5-chloro-2-(1H-tetrazol-1-yl)phenyl)-6,7-dihydro-5H-cyclopenta[b]pyridine=1-oxide] | 2000 | –
18 | O=C(O)c1ccc(NC(=O)[C@H]2CCc3cc(-c4c(F)ccc(Cl)c4F)c[n+]([O-])c32)cc1 [Example 3, 4-({[(7S)-3-(3-chloro-2,6-difluorophenyl)-1-oxido-6,7-dihydro-5H-cyclopenta[b]pyridin-b7-yl]carbonyl}amino)benzoic acid] | 2920 | –
19 | O=C(O)c1ccc(NC(=O)[C@@H]2CCc3cc(-c4c(F)ccc(Cl)c4F)c[n+]([O-])c32)cc1 [Example 4, 4-({[(7R)-3-(3-chloro-2,6-difluorophenyl)-1-oxido-6,7-dihydro-5H-cyclopenta[b]pyridin-7-yl]carbonyl}amino)benzoic acid] | 2370 | –
20 | O=C(O)c1ccc(NC(=O)C2(O)CC(O)c3cc(-c4cc(Cl)ccc4-n4cnnn4)c[n+]([O-])c32)cc1 (stereo not drawn) [Example 8, 4-[({3-[5-Chloro-2-(1H-tetrazol-1-yl)phenyl]-5,7-dihydroxy-1-oxido-6,7-dihydro-5H-cyclopenta[b]pyridin-7-yl}carbonyl)amino]benzoic acid] | 4.2 | 816
21 | COC(=O)Nc1ccc(C(=O)NC2CCc3cc(-c4cc(Cl)ccc4-n4cnnn4)c[n+]([O-])c32)cc1 (stereo not drawn) [Example 20, 3-(5-Chloro-2-(H-tetrazol-1-yl)phenyl)-7-(4-((methoxycarbonyl)amino)benzamido)-6,7-dihydro-5H-cyclopenta[b]pyridine 1-oxide] | 894 | –
